Experiment: Hydroxyapatite assay (hydroxyapatite adsorption chromatography, bone-targeting potential)
Format: binding
Settings: corrected K = (retention time-void time)/void on TSK-Gel HA 1000 HPLC column; linear gradient 10 mM to 500 mM sodium phosphate, 0.15 N NaCl, pH 6.8
Experimental: Hydroxyapatite is the principal mineral component of bone. Hydroxyapatite adsorption chromatography is used as an assay to evaluate the bone-targeting potential of both individual bone-targeting moieties (“monomers”) and of pharmaceuticals incorporating bone-targeting groups.
This K value is corrected using two reference compounds to correct from inter-column and inter-system variation to obtain a K′ value.
Reference Compounds: K′ values were determined for known bone targeted compounds, the bisphosphonate, alendronate and tetracycline.

Structure (SMILES): NCCCC(O)(P(=O)(O)O)P(=O)(O)O [Alendronate, alendronate]
- K′ value: 3.7

From patent US7019139B2, “Quinolinones and uses thereof” (ARIAD Pharmaceuticals, Inc., priority 2001, dated 2006)
